Test [1] concerns anti-MBP autoantibody. The experiment in a line: Serum anti-MBP autoantibody titer in EAE DA rats (Example 11). Particulars: EAE DA rats treated as in Example 10. The format is in vivo. The method, then:
To determine anti-MBP autoantibody binding patters in sera from the EAE-induced rodent models and human MS patients, ELISA experiments were performed as follows. Microtiter plates (MaxiSorp-Nunc) were coated with 50 μl of a 10 μg/ml MBP solution or recombinant MBP peptides in 100 mM carbonate/bicarbonate buffer pH 9.0, in odd column wells. Plates were sealed with ELISA plate sealer (Costar) and incubated at 4° C. overnight and then washed (300 μl/well) three times with phosphate-buffered saline (PBS) containing 0.15% Tween-20. All the wells were then blocked with 250 μl 2% bovine serum albumin (BSA) (Sigma) in carbonate/bicarbonate buffer pH 9.0 and incubated for 1 hr at 37° C. The plates were washed with PBS containing 0.15% Tween-20. Serum antibodies were diluted in PBS containing 0.15% Tween-20 and 0.5% BSA at the final dilution of 1:1000-1:50000, and 50 μl of the diluted sample was added to each well of the plate. Rat anti-MBP monoclonal antibody (ab7349, Abcam) was used as control. […] The OD450 values were measured using a microplate reader Varioscan (Thermo, USA).
To investigate the immunological status of EAE induced DA rats after treatment with liposomally encapsulated MBP peptides, serum isolated from rats treated as described in Example 10 was analyzed for anti-MBP antibodies and CNS cytokine staining (FIG. 5). […]

The subject of test [2] is EAE-induced DA rats. The experiment in a line: EAE-induced DA rat model, paralysis score and mortality (DA-EAE-28-05, Example 14). The format is in vivo. Particulars: versus water control (Group 1); days 1-4 post-treatment; daily s.c., 6 total; n=6. The method, then:
Each of the four MBP peptide formulations being evaluated were provided as lyophilized powders and stored at 4° C. Each formulation was rehydrated in water for injection according to Table 13. Copaxone (Teva LTD) was diluted with Saline to a final concentration of 720 μg/mL. Each subject animal was administered the test formulation for 6 consecutive days by subcutaneous injection.
8-9 week old Dark Agouti (DA) female rats (Harlan Laboratories, Inc.), weighing between 110 and 145 grams were used as the test subjects. The health status of the animals used in this study was examined on arrival. Only animals in good health were acclimatized to laboratory conditions and were used in the study. Animals were provided food ad libitum and free access to drinking water. Animals were housed in a controlled environment at between 20° C. and 24° C. with a relative humidity of 30-70% and a 12 hr light/12 hr dark cycle. Animals were randomly assigned to their respective test group. […]
The rats were evaluated up daily starting 24 hours after immunization. […] The animals were maintained and evaluated until day 28th post EAE-induction. […]
Animals were observed individually and clinical signs were recorded once daily during all study periods. […] The body weight of each animals was determined daily during all study periods.

Consider glatiramer acetate [copaxone], for which the “Serum anti-MBP Antibody titer” value in test [1] came to 1.0 ± 0.1. The paralysis score entry in test [2] is reported as “non-statistically significant difference (tendency)”.

The values above are taken from US20160175249A1, “Liposomes Containing Oligopeptide Fragments of Myelin Basic Protein, a Pharmaceutical Composition and a Method for Treatment of Multiple Sclerosis” (LIPOXEN TECHNOLOGIES LIMITED, priority 2009, published 2016).
